Measured values as given in ChEMBL document CHEMBL3045587, “Oxidation of di- and polyamines: in vitro effect of amino aldehydes on the vitality of Leishmania promastigotes” (Med Chem Res, 2010).
Active and inactive are the calls of the source. The rule behind the calls is not given here.

What was measured:
Type in all cases: functional, organism-based
Leishmania infantum [1] = test: Antiparasitic activity against promastigotes of Leishmania infantum MHOM-TN-80-IPT1 assessed as decrease in parasite density at 1 to 5 mM measured at 4th day by microscopic analysis
Leishmania infantum [2] = test: Increase in density of Leishmania infantum MHOM-TN-80-IPT1 promastigotes at 1 to 5 mM measured at 7th day by microscopic analysis
Leishmania infantum [3] = test: Increase in vitality of Leishmania infantum MHOM-TN-80-IPT1 promastigotes at 1 to 5 mM measured at 7th day by microscopic analysis
Leishmania infantum [4] = test: Antiparasitic activity against promastigotes of Leishmania infantum MHOM-TN-80-IPT1 assessed as decrease in parasite vitality at 1 to 5 mM measured at 4th day by microscopic analysis
Leishmania infantum [5] = test: Antiparasitic activity against promastigotes of Leishmania infantum MHOM-TN-80-IPT1 assessed as decrease in parasite density up to 3 mM measured at 4th and 7th day by microscopic analysis
Leishmania infantum [6] = test: Antiparasitic activity against promastigotes of Leishmania infantum MHOM-TN-80-IPT1 assessed as decrease in promastigote vitality at 5 mM by counting chamber
Leishmania infantum [7] = test: Antiparasitic activity against promastigotes of Leishmania infantum MHOM-TN-80-IPT1 assessed as decrease in parasite density at 1 to 5 mM measured at 4th and 7th day by microscopic analysis

Compound	inhibition (Leishmania infantum [1])	Activity (Leishmania infantum [2])	Activity (Leishmania infantum [3])	inhibition (Leishmania infantum [4])	inhibition (Leishmania infantum [5])	inhibition (Leishmania infantum [6])	inhibition (Leishmania infantum [7])
NCCCC=O	Active	Active	Active	Active			
NCCCCC=O	Active	Active	Active	Active			
NCCCNCCCC=O					Active		
O=CCCNCCCCNCCC=O						Active	Active
